One assay has as its target GDP-loaded KRAS G12D (Homo sapiens (Human), UniProt P01116, G12D). Put plainly: KRAS G12D (GDP) biochemical assay (TR-FRET probe displacement). As to conditions: 2 hours. The assay is classed as binding. The essentials: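 TR-FRET probe displacement: 1:3 DMSO serial dilutions pre-incubated 30 min with GDP-bound KRAS G12D, followed by Eu-streptavidin/probe for 2 h at room temperature (Hepes pH 7.4, NaCl, MgCl2, Tween-20 buffer). IC50 defined as concentration halving TR-FRET ratio, from sigmoidal dose-response fit.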
(In general: TR-FRET usually uses a lanthanide donor and a delayed reading to cut background.)

The subject of a further assay is AsPC-1 (KRAS G12D) cells. The assay is described as follows: 3D cell viability assay (spheroids, CellTiter-Glo 3D). It counts as cell-based. The conditions noted are these: AsPC-1 cells, 3D spheroids, 4 days. How it is done:
Example C. 3D Cell Viability Assay
Compounds were tested in a 384-well format for their ability to inhibit the viability of AsPC-1 (KRAS G12D) cells in 3D assays. On day 0, 1000 cells/well (80 μL volume per well) in DMEM with 10% FBS, and Penicillin-Streptomycin-Glutamine were plated in 384-well Ultra-Low Attachment Spheroid Microplates (Corning, Catalog #3830) on the BioTEK EL406 liquid dispenser with a 5 μL dispensing cassette (BioTek 7170011). The plates were incubated at 37° C., 5% CO2 for 3 days to allow spheroid formation. On day 3, compounds were serially diluted (1:3) in DMSO. The Biomek FX was used to add 400 nL of test molecule per well. The plates were incubated at 37° C., 5% CO2 for 4 days before addition of CellTiter-Glo 3D (Promega, Catalog #9683) reagent and measurement of luminescence signal. EC50 values were defined as the compound concentration that causes a 50% decrease in luminescence signal and were calculated using a sigmoidal dose-response model to generate curve fits.
In general terms: In ATP-based viability assays light output follows the ATP content of the culture.

A further assay concerns GP2D (KRAS G12D) cells. The assay is described as follows: 2D cell viability assay (CellTiter-Glo). It counts as cell-based. As to conditions: 4 days. In outline: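 Viability was read by CellTiter-Glo after 4 days at 37 °C of 2D culture of KRAS G12D GP2D cells (1000/well, RPMI, 10% FBS) on pre-spotted threefold compound dilutions. EC50 was fitted with a sigmoidal dose-response model as the point of half-maximal luminescence loss.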

Take “4-((5S,5aS,6S,9R)-5-ethyl-1-fluoro-12-(((2R,7aS)-2-fluorotetrahydro-1H-pyrrolizin-7a(5H)-yl)methoxy)-5a,6,7,8,9,10-hexahydro-5H-4-oxa-3,10a,11,13,14-pentaaza-6,9-methanonaphtho[1,8-ab]heptalen-2-yl)-5-ethynyl-6-fluoronaphthalen-2-ol [Example 80]”: on GDP-loaded KRAS G12D, the IC50 amounted to 0.1 nM. Besides, the EC50 in the assay with AsPC-1 (KRAS G12D) cells came to 2 nM; in the assay with GP2D (KRAS G12D) cells, 2.2 nM.

Compound `C#Cc1c(F)ccc2cccc(-c3nc4c5c(nc(OC[C@@]67CCCN6C[C@H](F)C7)nc5c3F)N3C[C@H]5CC[C@H](N5)C3C[C@@H]4C)c12` (stereo in doubt) [Example 93, (4S,5aS,6S,9R)-2-(8-ethynyl-7-fluoronaphthalen-1-yl)-1-fluoro-12-(((2R,7aS)-2-fluorotetrahydro-1H-pyrrolizin-7a(5H)-yl)methoxy)-4-methyl-4,5,5a,6,7,8,9,10-octahydro-3,10a,11,13,14-pentaaza-6,9-methanonaphtho[1,8-ab]heptalene] displayed an IC50 at GDP-loaded KRAS G12D of 2.5 nM. The EC50 in the assay with AsPC-1 (KRAS G12D) cells (Homo sapiens, ASPC1, 96 h) worked out at 82 nM; with GP2D (KRAS G12D) cells (GP2d, 96 h) it was 26.6 nM.

In turn, `C#Cc1c(F)ccc2cc(O)cc(-c3nc4c5c(nc(OC[C@@]67CCCN6C[C@H](F)C7)nc5c3F)N3C[C@H]5CC[C@H](N5)C3C[C@@H]4C)c12` (stereo in doubt) [Example 94, 5-ethynyl-6-fluoro-4-((4S,5aS,6S,9R)-1-fluoro-12-(((2R,7aS)-2-fluorotetrahydro-1H-pyrrolizin-7a(5H)-yl)methoxy)-4-methyl-4,5,5a,6,7,8,9,10-octahydro-3,10a,11,13,14-pentaaza-6,9-methanonaphtho[1,8-ab]heptalen-2-yl)naphthalen-2-ol] returned an IC50 on GDP-loaded KRAS G12D of 0.1 nM. In addition, the EC50 with AsPC-1 (KRAS G12D) cells (Homo sapiens, ASPC1, 96 h) was 2.2 nM; in the assay on GP2D (KRAS G12D) cells (GP2d, 96 h) it was 0.6 nM.

`C#Cc1c(F)ccc2cc(O)cc(-c3nc4c5c(nc(OC[C@@]67CCCN6C[C@H](F)C7)nc5c3F)N3C[C@H]5CC[C@H](N5)C3C[C@H]4C)c12` (stereo in doubt) [Example 96, 5-ethynyl-6-fluoro-4-((4R,5aS,6S,9R)-1-fluoro-12-(((2R,7aS)-2-fluorotetrahydro-1H-pyrrolizin-7a(5H)-yl)methoxy)-4-methyl-4,5,5a,6,7,8,9,10-octahydro-3,10a,11,13,14-pentaaza-6,9-methanonaphtho[1,8-ab]heptalen-2-yl)naphthalen-2-ol] returned an IC50 on GDP-loaded KRAS G12D of 0.3 nM. Further, the EC50 was found to be 1.9 nM with AsPC-1 (KRAS G12D) cells (Homo sapiens, ASPC1, 96 h) and 0.5 nM with GP2D (KRAS G12D) cells (GP2d, 96 h).

In turn, `C#Cc1c(F)ccc2cc(O)cc(-c3nc4c5c(nc(OC[C@@]67CCCN6C[C@@H](OC(C(F)(F)F)(C(F)(F)F)C(F)(F)F)C7)nc5c3F)N3C[C@H]5CC[C@H](N5)[C@H]3CC4)c12` (stereo in doubt) [Example 134, 5-ethynyl-6-fluoro-4-((5aR,6S,9R)-1-fluoro-12-((cis-2-((1,1,1,3,3,3-hexafluoro-2-(trifluoromethyl)propan-2-yl)oxy)tetrahydro-1H-pyrrolizin-7a(5H)-yl)methoxy)-4,5,5a,6,7,8,9,10-octahydro-3,10a,11,13,14-pentaaza-6,9-methanonaphtho[1,8-ab]heptalen-2-yl)naphthalen-2-ol] registered an IC50 at GDP-loaded KRAS G12D of 0.5 nM. Further, the EC50 was found to be 31 nM in the assay on AsPC-1 (KRAS G12D) cells (Homo sapiens, ASPC1, 96 h) and 2.2 nM in the assay with GP2D (KRAS G12D) cells (GP2d, 96 h).

On to `C#Cc1c(F)ccc2cc(O)cc(-c3nc4c5c(nc(OCC6(CN7CCC8(CC7)CC8)CC6)nc5c3F)N3C[C@H]5CC[C@H](N5)[C@H]3CC4)c12` [Example 177, 4-((5aR,6S,9R)-12-((1-((6-azaspiro[2.5]octan-6-yl)methyl)cyclopropyl)methoxy)-1-fluoro-4,5,5a,6,7,8,9,10-octahydro-3,10a,11,13,14-pentaaza[6,9]methanonaphtho[1,8-ab]heptalen-2-yl)-5-ethynyl-6-fluoronaphthalen-2-ol], for which the EC50 was 20 nM in the assay on AsPC-1 (KRAS G12D) cells (Homo sapiens, ASPC1, 96 h) and 1.5 nM with GP2D (KRAS G12D) cells (GP2d, 96 h).

As for `C#Cc1c(F)ccc2cccc(-c3nc4c5c(nc(OC[C@@]67CCCN6[C@H](COc6cc(C(F)(F)F)ncn6)CC7)nc5c3F)N3C[C@H]5CC[C@H](N5)[C@H]3CC[C@H]4C)c12` [Example 203, (4R,6aR,7S,10R)-2-(8-ethynyl-7-fluoronaphthalen-1-yl)-1-fluoro-4-methyl-13-(((3S,7aS)-3-(((6-(trifluoromethyl)pyrimidin-4-yl)oxy)methyl)tetrahydro-1H-pyrrolizin-7a(5H)-yl)methoxy)-5,6,6a,7,8,9,10,11-octahydro-4H-3,11a,12,14,15-pentaaza-7,10-methanocyclohepta[4,5]cycloocta[1,2,3-de]naphthalene], on GDP-loaded KRAS G12D, the IC50 was determined as 0.12 nM. In the assay with GP2D (KRAS G12D) cells (GP2d, 96 h), this compound displayed an EC50 of 1.2 nM.

On GDP-loaded KRAS G12D, `C#Cc1c(F)ccc2cc(O)cc(-c3c(Cl)c4c5c(nc(OC[C@@]67CCCN6C[C@H](F)C7)nc5c3F)N3C[C@H]5CC[C@H](N5)[C@H]3CC4)c12` [Example 204, 4-((1S,4R,14aR)-12-chloro-10-fluoro-8-(((2R,7aS)-2-fluorotetrahydro-1H-pyrrolizin-7a(5H)-yl)methoxy)-1,2,3,4,5,13,14,14a-octahydro-1,4-epiminoazepino[1′,2′:1,7]azepino[2,3,4-de]quinazolin-11-yl)-5-ethynyl-6-fluoronaphthalen-2-ol] displayed an IC50 of 0.1 nM. Besides, the midpoint of the response with GP2D (KRAS G12D) cells (GP2d, 96 h), the EC50, lay at 1.3 nM.

In the case of `C#Cc1c(F)ccc2cccc(-c3nc4c5c(nc(OC[C@@]67CCCN6[C@H](COc6cc(C(F)F)ncn6)CC7)nc5c3F)N3C[C@H]5CC[C@H](N5)[C@H]3CCC4)c12` [Example 205, (6aR,7S,10R)-13-(((3S,7aS)-3-(((6-(difluoromethyl)pyrimidin-4-yl)oxy)methyl)tetrahydro-1H-pyrrolizin-7a(5H)-yl)methoxy)-2-(8-ethynyl-7-fluoronaphthalen-1-yl)-1-fluoro-5,6,6a,7,8,9,10,11-octahydro-4H-3,11a,12,14,15-pentaaza-7,10-methanocyclohepta[4,5]cycloocta[1,2,3-de]naphthalene], the IC50 at GDP-loaded KRAS G12D came out at 0.06 nM. The midpoint of the response in the assay with GP2D (KRAS G12D) cells (GP2d, 96 h), the EC50, lay at 2.2 nM.

`C#Cc1c(F)ccc2cccc(-c3nc4c5c(nc(OC[C@@]67CCCN6[C@H](COc6ncncc6C(F)F)CC7)nc5c3F)N3C[C@H]5CC[C@H](N5)[C@H]3CCC4)c12` [Example 206, (6aR,7S,10R)-13-(((3S,7aS)-3-(((5-(difluoromethyl)pyrimidin-4-yl)oxy)methyl)tetrahydro-1H-pyrrolizin-7a(5H)-yl)methoxy)-2-(8-ethynyl-7-fluoronaphthalen-1-yl)-1-fluoro-5,6,6a,7,8,9,10,11-octahydro-4H-3,11a,12,14,15-pentaaza-7,10-methanocyclohepta[4,5]cycloocta[1,2,3-de]naphthalene] showed an IC50 at GDP-loaded KRAS G12D of 0.04 nM. In the assay on GP2D (KRAS G12D) cells (GP2d, 96 h), this compound showed a half-maximal effective concentration (EC50) of 1.6 nM.

As for `C#Cc1c(F)ccc2cccc(-c3nc4c5c(nc(OC[C@@]67CCCN6[C@H](COc6nccnc6C(F)F)CC7)nc5c3F)N3C[C@H]5CC[C@H](N5)[C@H]3CCC4)c12` [Example 207, (6aR,7S,10R)-13-(((3S,7aS)-3-(((3-(difluoromethyl)pyrazin-2-yl)oxy)methyl)tetrahydro-1H-pyrrolizin-7a(5H)-yl)methoxy)-2-(8-ethynyl-7-fluoronaphthalen-1-yl)-1-fluoro-5,6,6a,7,8,9,10,11-octahydro-4H-3,11a,12,14,15-pentaaza-7,10-methanocyclohepta[4,5]cycloocta[1,2,3-de]naphthalene], the IC50 on GDP-loaded KRAS G12D is 0.06 nM. In the assay with GP2D (KRAS G12D) cells (GP2d, 96 h), this compound came in with an EC50 of 1 nM.

At GDP-loaded KRAS G12D, `C#Cc1c(F)ccc2cccc(-c3nc4c5c(nc(OC[C@@]67CCCN6[C@H](COc6ccnc(C(F)F)n6)CC7)nc5c3F)N3C[C@H]5CC[C@H](N5)[C@H]3CCC4)c12` [Example 208, (6aR,7S,10R)-13-(((3S,7aS)-3-(((2-(difluoromethyl)pyrimidin-4-yl)oxy)methyl)tetrahydro-1H-pyrrolizin-7a(5H)-yl)methoxy)-2-(8-ethynyl-7-fluoronaphthalen-1-yl)-1-fluoro-5,6,6a,7,8,9,10,11-octahydro-4H-3,11a,12,14,15-pentaaza-7,10-methanocyclohepta[4,5]cycloocta[1,2,3-de]naphthalene] displayed an IC50 of 0.09 nM. Also, the response with GP2D (KRAS G12D) cells (GP2d, 96 h) was half-maximal at 3.3 nM (EC50).

“(6aR,7S,10R)-2-(8-ethynyl-7-fluoronaphthalen-1-yl)-1-fluoro-13-(((3S,7aS)-3-(((2-(trifluoromethyl)pyrimidin-4-yl)oxy)methyl)tetrahydro-1H-pyrrolizin-7a(5H)-yl)methoxy)-5,6,6a,7,8,9,10,11-octahydro-4H-3,11a,12,14,15-pentaaza-7,10-methanocyclohepta[4,5]cycloocta[1,2,3-de]naphthalene [Example 153]”: the IC50 at GDP-loaded KRAS G12D was found to be 0.3 nM. The same compound came in with an EC50 in the assay on GP2D (KRAS G12D) cells of 4.3 nM.

Broadly, the IC50 is the concentration at which inhibition is half-maximal. Usually EC50 stands for the concentration that produces a half-maximal response. Low values mean higher potency in that assay, high ones lower potency in that assay.
